Reference: patent US4393225A, “AI-77 Compounds and pharmaceutically acceptable salts thereof” (Asahi Kasei Kogyo Kabushiki Kaisha, priority 1979, dated 1983)

Tested on: ulcer
Test: Anti-ulcer test (restraint and water immersion ulcer in rats, i.p.)
Format: in vivo, Male Wistar rats
Details: Rattus norvegicus, ip; 50 mg/kg i.p.; read-out: % Inhibition of Ulcer
Experimental: The anti-ulcer and anti-edema activity of the compounds was evaluated in efficacy tests described below.
Male Wistar rats weighing about 150 g on average were not fed for 24 hours before the test. Then a solution or suspension of a predetermined concentration of the test compound in physiological saline was administered to them intraperitoneally. One hour after the administration,each rat was restrained in a net cage and submerged in a water both (21° C.) from the tail to xiphistrenun for 6 hours. Test animals were then killed (by dislocation of the cervical vertebrae), the stomach was removed and incised along the curvatura ventriculi major, and the inside wall of the stomach was pathologically examined under microscopic observation. Rats in which the occurrence of an ulceration was substantially not observed were rated O, while others were rated 0.5, 1, 2 or 3, depending on the severity of the ulcer development. The percent inhibition of ulcer was calculated by the following formula: [formula]

| SMILES | inhibition in vivo at 50 mg/kg [%] |
| --- | --- |
| CCOc1cccc2c1C(=O)OC(C(CC(C)C)NC(=O)C(O)C1OC(=O)CC1NC(=O)C1CC1)C2 (stereo not drawn) [IIIa-5-18] | 44 |
| CCOc1cccc2c1C(=O)OC(C(CC(C)C)NC(=O)C(O)C1OC(=O)CC1NC(=O)Cc1ccccc1)C2 (stereo not drawn) [IIIa-5-20] | 44 |
| CCOc1cccc2c1C(=O)OC(C(CC(C)C)NC(=O)C(O)C1OC(=O)CC1NC(=O)Cc1ccc3ccccc3c1C)C2 (stereo not drawn) [IIIa-5-21] | 33 |
| CCOc1cccc2c1C(=O)OC(C(CC(C)C)NC(=O)C(O)C1OC(=O)CC1NC(=O)c1ccco1)C2 (stereo not drawn) [IIIa-5-22] | 44 |
| CCOc1cccc2c1C(=O)OC(C(CC(C)C)NC(=O)C(O)C1OC(=O)CC1NC(=O)C1CCCO1)C2 (stereo not drawn) [IIIa-5-23] | 44 |
| CCOc1cccc2c1C(=O)OC(C(CC(C)C)NC(=O)C(O)C1OC(=O)CC1NC(=O)CC1CCCCO1)C2 (stereo not drawn) [IIIa-5-24] | 44 |
| CCOc1cccc2c1C(=O)OC(C(CC(C)C)NC(=O)C(O)C1OC(=O)CC1NC(=O)c1cccs1)C2 (stereo not drawn) [IIIa-5-25] | 44 |
| CCOc1cccc2c1C(=O)OC(C(CC(C)C)NC(=O)C(O)C1OC(=O)CC1NC(=O)c1nnnn1C)C2 (stereo not drawn) [IIIa-5-27] | 44 |
| CCOc1cccc2c1C(=O)OC(C(CC(C)C)NC(=O)C(O)C1OC(=O)CC1NC(=O)c1cccn1C(C)=O)C2 (stereo not drawn) [IIIa-5-28] | 44 |
| CCOc1cccc2c1C(=O)OC(C(CC(C)C)NC(=O)C(O)C1OC(=O)CC1NC(=O)c1cccn1C)C2 (stereo not drawn) [IIIa-5-29] | 33 |
| CCOc1cccc2c1C(=O)OC(C(CC(C)C)NC(=O)C(O)C1OC(=O)CC1NC(=O)c1cnc3ccc(OC)cc3c1)C2 (stereo not drawn) [IIIa-5-30] | 33 |
| CCOc1cccc2c1C(=O)OC(C(CC(C)C)NC(=O)C(O)C1OC(=O)CC1NC(=O)CCCBr)C2 (stereo not drawn) [IIIa-5-31] | 44 |
| CCOc1cccc2c1C(=O)OC(C(CC(C)C)NC(=O)C(O)C1OC(=O)CC1NC(=O)C(=O)CC)C2 (stereo not drawn) [IIIa-5-32] | 44 |
| CCOc1cccc2c1C(=O)OC(C(CC(C)C)NC(=O)C(O)C1OC(=O)CC1NC(=O)C1CCCCC1=O)C2 (stereo not drawn) [IIIa-5-33] | 44 |
| CCOc1cccc2c1C(=O)OC(C(CC(C)C)NC(=O)C(O)C1OC(=O)CC1NC(=O)c1cn(C(C)=O)c3ccccc13)C2 (stereo not drawn) [IIIa-5-34] | 33 |
| CCOc1cccc2c1C(=O)OC(C(CC(C)C)NC(=O)C(O)C1OC(=O)CC1NC(=O)c1ccc(OC(C)=O)cc1)C2 (stereo not drawn) [IIIa-5-35] | 44 |
| CCOC(=O)CCC(=O)NC1CC(=O)OC1C(O)C(=O)NC(CC(C)C)C1Cc2cccc(OCC)c2C(=O)O1 (stereo not drawn) [IIIa-5-36] | 44 |
| CCOc1cccc2c1C(=O)OC(C(CC(C)C)NC(=O)C(O)C1OC(=O)CC1NC(=O)c1ccc(C)cc1)C2 (stereo not drawn) [IIIa-5-37] | 44 |
| CCOc1cccc2c1C(=O)OC(C(CC(C)C)NC(=O)C(O)C1OC(=O)CC1NC(=O)c1ccc(CCC(C)C)cc1)C2 (stereo not drawn) [IIIa-5-38] | 33 |
| CCOc1cccc2c1C(=O)OC(C(CC(C)C)NC(=O)C(O)C1OC(=O)CC1NC(=O)c1ccc(OC)cc1)C2 (stereo not drawn) [IIIa-5-39] | 44 |
| CCOc1cccc2c1C(=O)OC(C(CC(C)C)NC(=O)C(O)C1OC(=O)CC1NC(=O)CC(C)OC)C2 (stereo not drawn) [IIIa-5-41] | 33 |
| CCCCCOC(C)CC(=O)NC1CC(=O)OC1C(O)C(=O)NC(CC(C)C)C1Cc2cccc(OCC)c2C(=O)O1 (stereo not drawn) [IIIa-5-42] | 33 |
| CCOc1cccc2c1C(=O)OC(C(CC(C)C)NC(=O)C(O)C1OC(=O)CC1NC(=O)CSC)C2 (stereo not drawn) [IIIa-5-43] | 44 |
| CCCCCSCC(=O)NC1CC(=O)OC1C(O)C(=O)NC(CC(C)C)C1Cc2cccc(OCC)c2C(=O)O1 (stereo not drawn) [IIIa-5-44] | 33 |
| CCOc1cccc2c1C(=O)OC(C(CC(C)C)NC(=O)C(O)C1OC(=O)CC1NC(=O)c1ccc(SC)cc1)C2 (stereo not drawn) [IIIa-5-45] | 33 |
| CCCCCSc1ccc(C(=O)NC2CC(=O)OC2C(O)C(=O)NC(CC(C)C)C2Cc3cccc(OCC)c3C(=O)O2)cc1 (stereo not drawn) [IIIa-5-46] | 33 |
| CCOc1cccc2c1C(=O)OC(C(CC(C)C)NC(=O)C(O)C1OC(=O)CC1NC(=O)CC(C)OC(C)=O)C2 (stereo not drawn) [IIIa-5-47] | 33 |
| CCCCCC(=O)OC(C)CC(=O)NC1CC(=O)OC1C(O)C(=O)NC(CC(C)C)C1Cc2cccc(OCC)c2C(=O)O1 (stereo not drawn) [IIIa-5-48] | 33 |
| CCOc1cccc2c1C(=O)OC(C(CC(C)C)NC(=O)C(O)C1OC(=O)CC1NC(=O)c1ccc(C(=O)OC)cc1)C2 (stereo not drawn) [IIIa-5-49] | 33 |
| CCCCCOC(=O)c1ccc(C(=O)NC2CC(=O)OC2C(O)C(=O)NC(CC(C)C)C2Cc3cccc(OCC)c3C(=O)O2)cc1 (stereo not drawn) [IIIa-5-50] | 33 |
